These results are taken from PMC9122944, “Structural insights into the activation of somatostatin receptor 2 by cyclic SST analogues” (Cell Discovery, 2022).

The target in data set [1] is T1, SSTR2 D122A (Homo sapiens, UniProt P30874, D122A).
T1 construct: Flag; expressed in transfected cells; host or cells: 293 T cells (pcDNA3.1, co-transfected with Gqi9)
Kind of data set: Intracellular Ca2+ mobilization signaling assay, SSTR2 D122A mutant. Type of data set: cell-based. The conditions noted are these: read-out: Ca2+ Emax. On the procedure:
(§1) SSTR2 (wild-type or mutant) and Gqi9 cloned in pcDNA3.1 vector were co-transfected into 293 T cells at a ratio of 2:1 with Lipo3000. After 24 h, the cells were plated in poly-D-lysine-coated 96-well plates. After cells were washed with calcium buffer (HBSS buffer supplemented with 0.1% BSA, 2.5 mM probenecid, pH 7.4), Fluo4 AM was added and incubated for 50 min in a 37 °C incubator. After washing with calcium buffer, 50 μL calcium buffer was added to each well. Fluorescence intensities were recorded simultaneously from all the wells by a FLIPR. Plates were illuminated at 488 nm and fluorescence emission was recorded at 540 nm. The fluorescence intensity was measured at 1-s intervals for 410 s. This procedure was followed by the addition of 50 μL agonist. Data were normalized to the baseline response of the ligand. Data were analyzed using nonlinear regression in GraphPad Prism software 9.0.

The target in data set [2] is T2, SSTR2-Q126A (Homo sapiens, UniProt P30874, Q126A).
T2 construct: Flag; expressed in transfected cells; host or cells: 293 T cells (pcDNA3.1, co-transfected with Gqi9)
The data set is described as follows: Intracellular Ca2+ mobilization signaling assay, SSTR2 Q126A mutant. The conditions noted are these: read-out: Ca2+ Emax. Format: cell-based. The method, then:
as §1
For orientation: A change in cytosolic calcium serves as a functional read-out for many receptors and channels.

Data set [3] has as its target T3, SSTR2 (wild-type) (Homo sapiens, UniProt P30874).
T3 construct: Flag; expressed in transfected cells; host or cells: 293 T cells (pcDNA3.1, co-transfected with Gqi9)
The data set is described as follows: Intracellular Ca2+ mobilization signaling assay, wild-type SSTR2. Type of data set: cell-based. The method, then:
as §1

For data set [4], the target named is T4, SSTR2 N276A (Homo sapiens, UniProt P30874, N276A).
T4 construct: Flag; expressed in transfected cells; host or cells: 293 T cells (pcDNA3.1, co-transfected with Gqi9)
The data set is described as follows: Intracellular Ca2+ mobilization signaling assay, SSTR2 N276A mutant. Format: cell-based. The conditions noted are these: read-out: Ca2+ Emax. The method, then: as §1

For data set [5], the target named is T5, SSTR2 F294S (Homo sapiens, UniProt P30874, F294S).
T5 construct: Flag; expressed in transfected cells; host or cells: 293 T cells (pcDNA3.1, co-transfected with Gqi9)
Kind of data set: Intracellular Ca2+ mobilization signaling assay, SSTR2 F294S mutant. Format: cell-based. The conditions noted are these: read-out: Ca2+ Emax. On the procedure: as §1

Data set [6] has as its target T6, SSTR2 F208A (Homo sapiens, UniProt P30874, F208A).
T6 construct: Flag; expressed in transfected cells; host or cells: 293 T cells (pcDNA3.1, co-transfected with Gqi9)
Kind of data set: Intracellular Ca2+ mobilization signaling assay, SSTR2 F208A mutant. Type of data set: cell-based. The conditions noted are these: read-out: Ca2+ Emax. The method, then: as §1

Data set [7] addresses T7, SSTR2 F272A (Homo sapiens, UniProt P30874, F272A).
T7 construct: Flag; expressed in transfected cells; host or cells: 293 T cells (pcDNA3.1, co-transfected with Gqi9)
The data set is described as follows: Intracellular Ca2+ mobilization signaling assay, SSTR2 F272A mutant. Type of data set: cell-based. As to conditions: percentage of wild-type SSTR2 response. The method, then: as §1

The conditions of data set [8]: cited from earlier work.
Data set [9] deals with T8, SSTR2 Y302A (Homo sapiens, UniProt P30874, Y302A).
T8 construct: Flag; expressed in transfected cells; host or cells: 293 T cells (pcDNA3.1, co-transfected with Gqi9)
Kind of data set: Intracellular Ca2+ mobilization signaling assay, SSTR2 Y302A mutant. Type of data set: cell-based. The conditions noted are these: read-out: Ca2+ Emax. On the procedure: as §1

Data set [10] concerns the target T9, SSTR2 Q102A (Homo sapiens, UniProt P30874, Q102A).
T9 construct: Flag; expressed in transfected cells; host or cells: 293 T cells (pcDNA3.1, co-transfected with Gqi9)
The data set is described as follows: Intracellular Ca2+ mobilization signaling assay, SSTR2 Q102A mutant. Format: cell-based. As to conditions: for Emax: read-out: Ca2+ Emax. The method, then: as §1

Data set [11] deals with T10, SSTR2-Q102S (Homo sapiens, UniProt P30874, Q102S).
T10 construct: Flag; expressed in transfected cells; host or cells: 293 T cells (pcDNA3.1, co-transfected with Gqi9)
Kind of data set: Intracellular Ca2+ mobilization signaling assay, SSTR2 Q102S mutant. Type of data set: cell-based. As to conditions: for Emax: read-out: Ca2+ Emax. On the procedure: as §1

For data set [12], the target named is T11, SSTR2(1-359)-Largebit (Homo sapiens, UniProt P30874).
T11 construct: SSTR2(1-359)-; Flag; expressed in transfected cells; host or cells: 293 T cells (pcDNA3.1, co-transfected with Gqi9)
Kind of data set: Intracellular Ca2+ mobilization signaling assay, SSTR2(1-359)-Largebit construct. Type of data set: cell-based. As to conditions: maximal response as percentage of wild-type SSTR2 response. The method, then: as §1

The test system of data set [13] is SSTR1. The conditions noted are these: SSTR1 (all five SSTRs); cited from earlier work.
The test system of data set [14] is SSTR5. As to conditions: SSTR5 (all five SSTRs); cited from earlier work.
Data set [15] concerns SSTR3. As to conditions: SSTR3 (all five SSTRs); cited from earlier work.
The subject of data set [16] is SSTR2. The conditions noted are these: SSTR2 (all five SSTRs); cited from earlier work.
Data set [17] concerns SSTR4. The conditions noted are these: SSTR4 (all five SSTRs); cited from earlier work.
For data set [18], the target named is wild-type SSTR2 (pcDNA3.1, functional assays) (human) (UniProt P30874).
The target in data set [19] is SSTR2-Q126A (human) (UniProt P30874).
Data set [20] addresses SSTR2-Q102^2.63 substituted with alanine (human) (UniProt P30874).

Like-named read-outs stand apart in the source and are kept apart here.

T9 sequence (P30874 whole entry Q102A): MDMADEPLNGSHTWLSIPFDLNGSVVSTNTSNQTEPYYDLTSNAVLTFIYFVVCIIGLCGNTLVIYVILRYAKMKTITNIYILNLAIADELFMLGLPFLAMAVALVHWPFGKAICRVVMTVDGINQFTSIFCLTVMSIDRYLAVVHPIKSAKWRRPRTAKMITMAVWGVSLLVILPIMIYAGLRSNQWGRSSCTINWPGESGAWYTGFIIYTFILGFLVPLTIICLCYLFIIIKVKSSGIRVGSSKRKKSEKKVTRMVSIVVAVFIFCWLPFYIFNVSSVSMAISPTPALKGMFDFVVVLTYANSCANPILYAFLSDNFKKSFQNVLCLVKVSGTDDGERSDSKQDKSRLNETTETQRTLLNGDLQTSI
T10 sequence (P30874 whole entry Q102S): as the sequence (P30874 whole entry Q102A) above, with A102S counted along it
T2 sequence (P30874 whole entry Q126A): as the sequence (P30874 whole entry Q102A) above, with A102Q, Q126A counted along it
T6 sequence (P30874 whole entry F208A): as the sequence (P30874 whole entry Q102A) above, with A102Q, F208A counted along it
T8 sequence (P30874 whole entry Y302A): as the sequence (P30874 whole entry Q102A) above, with A102Q, Y302A counted along it
T1 sequence (P30874 whole entry D122A): as the sequence (P30874 whole entry Q102A) above, with A102Q, D122A counted along it
T4 sequence (P30874 whole entry N276A): as the sequence (P30874 whole entry Q102A) above, with A102Q, N276A counted along it
T11 sequence (P30874 1-359): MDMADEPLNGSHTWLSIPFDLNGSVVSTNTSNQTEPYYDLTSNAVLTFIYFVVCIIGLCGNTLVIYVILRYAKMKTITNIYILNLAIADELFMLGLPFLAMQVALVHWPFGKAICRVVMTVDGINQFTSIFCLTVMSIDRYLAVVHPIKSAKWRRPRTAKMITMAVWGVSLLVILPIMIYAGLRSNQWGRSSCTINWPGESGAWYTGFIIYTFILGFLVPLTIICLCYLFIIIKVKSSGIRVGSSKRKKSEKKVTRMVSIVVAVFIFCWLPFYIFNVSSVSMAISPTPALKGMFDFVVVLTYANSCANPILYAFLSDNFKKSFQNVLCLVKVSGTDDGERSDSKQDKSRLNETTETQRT
T5 sequence (P30874 whole entry F294S): as the sequence (P30874 whole entry Q102A) above, with A102Q, F294S counted along it
Chain of SSTR2-Q126A (human) (P30874 whole entry Q126A): as the sequence (P30874 whole entry Q102A) above, with A102Q, Q126A counted along it
Chain of SSTR2-Q102^2.63 substituted with alanine (human) (P30874 whole entry Q102A): as the sequence (P30874 whole entry Q102A) above
T7 sequence (P30874 whole entry F272A): as the sequence (P30874 whole entry Q102A) above, with A102Q, F272A counted along it
T3 sequence (P30874 whole entry): as the sequence (P30874 whole entry Q102A) above, with A102Q counted along it
Chain of wild-type SSTR2 (pcDNA3.1, functional assays) (human) (P30874 whole entry): as the sequence (P30874 whole entry Q102A) above, with A102Q counted along it

Take `CC(C)[C@@H]1NC(=O)[C@H](CCCCN)NC(=O)[C@@H](Cc2c[nH]c3ccccc23)NC(=O)[C@H](Cc2ccc(O)cc2)NC(=O)[C@@H](NC(=O)[C@H](N)Cc2ccc3ccccc3c2)CSSC[C@@H](C(=O)N[C@H](C(N)=O)[C@@H](C)O)NC1=O` [Lanreotide]: the Emax (in general, the greatest response seen or fitted, relative to the assay's reference) in [1] turned out to be 11.7 ± 4.3%; in data set [2] it was 25.2 ± 1.8%; in [4], 13.8 ± 1.6%; in [5] it was 11.4 ± 0.8%; in [6], 27.9 ± 4%; in data set [7] it was 12.4 ± 1.1%. Moreover, the Emax in data set [9] was 14 ± 2.2%; in [10], 56.1 ± 4.2%; in data set [11] it was 54.8 ± 1.6%. In addition, the values for the EC50 in [3], in data set [10] and in [11] were 50.1 nM, 398 nM and 501 nM, respectively. Moreover, the half-life (in general, how long it takes for the measured level to halve) in data set [8] is 1 h. In addition, in [11] (SSTR2-Q102S versus wild-type SSTR2), the “Effect of mutation on EC50” value is “highly attenuated EC50”.
`C[C@@H](O)[C@@H]1NC(=O)[C@H](CCCCN)NC(=O)[C@@H](Cc2c[nH]c3ccccc23)NC(=O)[C@H](Cc2ccccc2)NC(=O)[C@@H](NC(=O)[C@H](N)Cc2ccccc2)CSSC[C@@H](C(=O)N[C@H](CO)[C@@H](C)O)NC1=O` [Octreotide]: the Emax in data set [1] (D122A mutant, percentage of wild-type SSTR2 response) came out at 5.6 ± 0.5%; in data set [12], 82.6 ± 7.4%; in [2] (Q126A mutant, percentage of wild-type SSTR2 response), 83.5 ± 5.9%; in data set [4] (N276A mutant, percentage of wild-type SSTR2 response) it was 22.3 ± 5.4%; in data set [6] (F208A mutant, percentage of wild-type SSTR2 response) it was 98.7 ± 6.9%; in data set [9] (Y302A mutant, percentage of wild-type SSTR2 response), 13.7 ± 3.2%. In addition, the Emax stood at 104 ± 12.1% in data set [10] (Q102A mutant, percentage of wild-type SSTR2 response) and 91.9 ± 6.5% in data set [11] (Q102S mutant, percentage of wild-type SSTR2 response). Moreover, the half-life in data set [8] was 2 h.
Consider `C[C@H](N)C(=O)NCC(=O)N[C@H]1CSSC[C@@H](C(=O)O)NC(=O)[C@H](CO)NC(=O)[C@H]([C@@H](C)O)NC(=O)[C@H](Cc2ccccc2)NC(=O)[C@H]([C@@H](C)O)NC(=O)[C@H](CCCCN)NC(=O)[C@H](Cc2c[nH]c3ccccc23)NC(=O)[C@H](Cc2ccccc2)NC(=O)[C@H](Cc2ccccc2)NC(=O)[C@H](CC(N)=O)NC(=O)[C@H](CCCCN)NC1=O` [SST14], for which the binding affinity entry in data set [13], in data set [14], in data set [15], in data set [16] and in data set [17] was “high binding affinity” each time.
For octreotide (peptide), the figures for the EC50 of Ca^2+ mobilization (293 T cells with Gqi9) in data set [18], in data set [19] and in data set [20] were 20 nM, 100 nM and 1300 nM, respectively.
